Test results from patent publication US12156880B2, “Heterocyclic RIP1 kinase inhibitors” (Rigel Pharmaceuticals, Inc., priority 2021, dated 2024).

How the values were obtained:
RIPK1 = target: T1, RIPK1 (Homo sapiens, UniProt Q13546); assay: RIPK1 ADP-Glo biochemical kinase assay; conditions: read-out: RIPK1 ADP-Glo Kinase (IC50)
T1 sequence (Q13546 1-671): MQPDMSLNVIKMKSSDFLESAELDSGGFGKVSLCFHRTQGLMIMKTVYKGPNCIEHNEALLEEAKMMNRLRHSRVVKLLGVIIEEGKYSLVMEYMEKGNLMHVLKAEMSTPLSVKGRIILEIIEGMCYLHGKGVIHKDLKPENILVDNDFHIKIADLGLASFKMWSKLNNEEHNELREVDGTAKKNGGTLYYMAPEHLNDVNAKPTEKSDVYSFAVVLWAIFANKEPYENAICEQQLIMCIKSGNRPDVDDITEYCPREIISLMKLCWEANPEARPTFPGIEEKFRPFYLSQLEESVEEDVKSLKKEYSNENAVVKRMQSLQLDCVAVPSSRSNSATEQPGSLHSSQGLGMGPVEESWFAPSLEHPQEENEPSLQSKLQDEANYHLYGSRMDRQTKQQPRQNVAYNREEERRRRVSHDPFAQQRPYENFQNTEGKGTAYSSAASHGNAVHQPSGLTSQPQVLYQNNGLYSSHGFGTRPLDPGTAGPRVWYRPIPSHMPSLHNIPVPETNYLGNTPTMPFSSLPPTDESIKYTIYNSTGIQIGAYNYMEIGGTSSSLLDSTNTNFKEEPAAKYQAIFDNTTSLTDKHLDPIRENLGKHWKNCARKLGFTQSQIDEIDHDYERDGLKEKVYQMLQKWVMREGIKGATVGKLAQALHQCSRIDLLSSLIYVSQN
Description: In this example, compounds of the disclosure were evaluated using a biochemical assay using the ADP-Glo™ technology.
ADP-Glo™ (Promega, Madison, WI, USA) reagents were thawed at ambient temperature. Kinase Detection Reagent was prepared by mixing kinase detection buffer with the lyophilized kinase detection substrate.
A […] stock volume of 5× Reaction Kinase Buffer was made by mixing 1000 μl of 1M MgCl2, 500 μl of 1M Tris-HCL pH7.4, 0.5 mg/ml (25 mg) of BSA, and 3475 μl of distilled H2O. A 3 ml 2× working stock volume of Reaction Kinase Buffer was made containing a final concentration of 100 μM DTT and 4 mM MnCl2.
Components of RIPK1 enzyme (Rigel Pharmaceuticals, South San Francisco, CA, USA) were thawed on ice. Diluted RIPK1 was prepared in 1× Kinase Reaction Buffer (diluted from 2× buffer) to 31 ng/well.
1.0 ul of diluted compound was added to a 384 well plate in duplicate. […] The final reaction volume was 5.0 μl.
The plate was quickly centrifuged and the reaction was incubated at 30° C. for 30 minutes. Adding 5 μl of ADP-Glo™ terminated the reaction. The plate was quickly centrifuged and the reaction was incubated at room temperature for 40 minutes. Kinase Detection Reagent was then added and incubated at room temperature for 30 minutes. The relative light unit (RLU) of kinase reaction was determined by luminescent (Luminescence 0.1 s) using a Wallac Victor2 Luminometer (PerkinElmer, Waltham, MA, USA).

U937 cells = assay: U937 cell necroptosis assay (TNFa + zVAD, CellTiter-Glo recovery); assay type: cell-based; conditions: Homo sapiens, U-937, 18 h, TNFa 2 ng/mL + zVAD-fmk, read-out: U937 Zvad TNF CTG Recovery, U937, TNFa + zVAD (IC50)
Description: In this example, U937 and L929 cells were exposed to compounds of the present disclosure and a cell necroptosis assay was conducted to evaluate the compounds' activity against human RIP1 and murine RIP1.
U937 and L929 cells were obtained from the American Type Culture Collection (Manassas, VA, USA). Both cells were maintained in logarithmic growth phase in complete RPMI 1640 media (Sigma, ST Louis, MO, USA) supplemented with 10% fetal bovine serum (Sigma, ST Louis, MO, USA) at 37° C. with 5% CO2. For necroptosis assay, L929 cells were plated for 18 h in 100 μL/well medium at 10K cells/well in Costar 96-well black clear-bottom plates (Fisher Scientific, Hampton, NH, USA); U937 cells were plated on the day of the assay in 50 μL/well medium containing 60 uM zVAD-fmk (Lonza, Basel, Switzerland) at 50K cells/well. Medium from L929 cells were removed from the 96-well plates and replaced with 50 μL/well new medium containing 40 uM zVAD-fmk. Each compound of the present disclosure evaluated in this example was serially diluted in DMSO from 2.5 mM in 4-fold dilutions, and then diluted 1:125 in complete medium. 50 μL/well 2× of the compound was then added to the cells in the plates. The cells were pre-incubated with the compound for 1 hour at 37° C. with 5% CO2 and before addition of 10 μL/well 11×TNFa (Peprotech, Rocky Hill, NJ, USA) to give a final concentration of 2 ng/mL for TNFa. The relative amount of necroptosis cells was determined by luminescent using a Wallac Victor2 Luminometer (PerkinElmer, Waltham, MA, USA) and a CellTiter-Glo® Luminescent Cell Viability Reagent Assay (Promega, Madison, WI, USA) added per manufacturer instructions after 18 hours of TNFa stimulation at 37° C. with 5% CO2. This example establishes that embodiments of the compounds described herein have unexpectedly potent activity against human RIP1 and murine RIP1, which allows their assessment in in vivo mouse models of disease.

In the case of `CN1C(=O)[C@@H](NC(=O)n2cc(Cc3ccccn3)cn2)COc2ccc(C#CC(C)(C)O)cc21` [I-8, (S)—N-(7-(3-Hydroxy-3-methylbut-1-yn-1-yl)-5-methyl-4-oxo-2,3,4,5-tetrahydrobenzo[b][1,4]oxazepin-3-yl)-4-(pyridin-2-ylmethyl)-1H-pyrazole-1-carboxamide], the IC50 (RIPK1) is reported as 26.4 nM.
`CN1C(=O)[C@@H](NC(=O)c2cc(Cc3cccc(O)n3)ccn2)COc2ccc(C#CC3(O)COC3)cc21` [I-10, (S)—N-(7-((3-hydroxyoxetan-3-yl)ethynyl)-5-methyl-4-oxo-2,3,4,5-tetrahydrobenzo[b][1,4]oxazepin-3-yl)-4-((6-hydroxypyridin-2-yl)methyl)picolinamide] was tested, and the IC50 (RIPK1) was 304 nM and the IC50 (U937 cells) was 2.83 µM.
Molecule `CN1C(=O)[C@@H](NC(=O)n2cc(Cc3cccnn3)cn2)COc2ccc(C#CC(C)(C)O)cc21` [I-17, (S)—N-(7-(3-Hydroxy-3-methylbut-1-yn-1-yl)-5-methyl-4-oxo-2,3,4,5-tetrahydrobenzo[b][1,4]oxazepin-3-yl)-4-(pyridazin-3-ylmethyl)-1H-pyrazole-1-carboxamide] has an IC50 (RIPK1) of 111 nM and an IC50 (U937 cells) of 0.715 µM.
`Cc1cccc(Cc2cnn(C(=O)N[C@H]3COc4ccc(Br)cc4N(C)C3=O)c2)n1` [I-19, (S)—N-(7-Bromo-5-methyl-4-oxo-2,3,4,5-tetrahydrobenzo[b][1,4]oxazepin-3-yl)-4-((6-methylpyridin-2-yl)methyl)-1H-pyrazole-1-carboxamide] gave an IC50 (U937 cells) of 0.264 µM.
Work on `CN1C(=O)[C@@H](NC(=O)n2cc(Cc3ccc(F)nc3)cn2)COc2ccc(Br)cc21` [I-24, (S)—N-(7-Bromo-5-methyl-4-oxo-2,3,4,5-tetrahydrobenzo[b][1,4]oxazepin-3-yl)-4-((6-fluoropyridin-3-yl)methyl)-1H-pyrazole-1-carboxamide] yielded an IC50 (U937 cells) of 0.0698 µM.
`CN1C(=O)[C@@H](NC(=O)n2cc(Cc3cccnn3)cn2)COc2ccc(Br)cc21` [I-25, (S)—N-(7-Bromo-5-methyl-4-oxo-2,3,4,5-tetrahydrobenzo[b][1,4]oxazepin-3-yl)-4-(pyridazin-3-ylmethyl)-1H-pyrazole-1-carboxamide] showed an IC50 (U937 cells) of 4.12 µM.
Molecule `CN1C(=O)[C@@H](NC(=O)n2cc(Cc3ncccn3)cn2)COc2ccc(Br)cc21` [I-30, (S)—N-(7-Bromo-5-methyl-4-oxo-2,3,4,5-tetrahydrobenzo[b][1,4]oxazepin-3-yl)-4-(pyrimidin-2-ylmethyl)-1H-pyrazole-1-carboxamide] has an IC50 (RIPK1) of 480 nM and an IC50 (U937 cells) of 7.21 µM.
Molecule `CN1C(=O)[C@@H](NC(=O)n2cc(Cc3ncccn3)cn2)COc2ccc(C#CC(C)(C)O)cc21` [I-31, (S)—N-(7-(3-Hydroxy-3-methylbut-1-yn-1-yl)-5-methyl-4-oxo-2,3,4,5-tetrahydrobenzo[b][1,4]oxazepin-3-yl)-4-(pyrimidin-2-ylmethyl)-1H-pyrazole-1-carboxamide] has an IC50 (RIPK1) of 106 nM and an IC50 (U937 cells) of 1.98 µM.
With `CN1C(=O)[C@@H](NC(=O)n2cc(Cc3ccc(F)nc3F)cn2)COc2ccc(Br)cc21` [I-49, (S)—N-(7-Bromo-5-methyl-4-oxo-2,3,4,5-tetrahydrobenzo[b][1,4]oxazepin-3-yl)-4-((2,6-difluoropyridin-3-yl)methyl)-1H-pyrazole-1-carboxamide] the IC50 (RIPK1) was 207 nM and the IC50 (U937 cells) was 0.17 µM.
Work on `Cc1noc(C)c1Cc1ccnc(C(=O)N[C@H]2COc3ccc(C#CC(C)(C)O)cc3N(C)C2=O)c1` [I-68, (S)-4-((3,5-dimethylisoxazol-4-yl)methyl)-N-(7-(3-hydroxy-3-methylbut-1-yn-1-yl)-5-methyl-4-oxo-2,3,4,5-tetrahydrobenzo[b][1,4]oxazepin-3-yl)picolinamide] yielded an IC50 (RIPK1) of 467 nM and an IC50 (U937 cells) of 7.16 µM.
`Cc1noc(C)c1Cc1ccnc(C(=O)N[C@H]2COc3ccc(C#CC4(O)COC4)cc3N(C)C2=O)c1` [I-69, (S)-4-((3,5-dimethylisoxazol-4-yl)methyl)-N-(7-((3-hydroxyoxetan-3-yl)ethynyl)-5-methyl-4-oxo-2,3,4,5-tetrahydrobenzo[b][1,4]oxazepin-3-yl)picolinamide] was tested, and the IC50 (RIPK1) was 326 nM and the IC50 (U937 cells) was 2.83 µM.
In the case of `CN1C(=O)[C@@H](NC(=O)c2cc(Oc3ccc(C(F)(F)F)nc3)ccn2)COc2ccc(C#CC(C)(C)O)cc21` [I-80, (S)—N-(7-(3-hydroxy-3-methylbut-1-yn-1-yl)-5-methyl-4-oxo-2,3,4,5-tetrahydrobenzo[b][1,4]oxazepin-3-yl)-4-((6-(trifluoromethyl)pyridin-3-yl)oxy)picolinamide], the IC50 (RIPK1) is reported as 4530 nM and the IC50 (U937 cells) is reported as 7.31 µM.
`CN1C(=O)[C@@H](NC(=O)c2cc(Oc3ccc(C(F)(F)F)nc3)ccn2)COc2ccc(C#CC3(O)COC3)cc21` [I-81, (S)—N-(7-((3-hydroxyoxetan-3-yl)ethynyl)-5-methyl-4-oxo-2,3,4,5-tetrahydrobenzo[b][1,4]oxazepin-3-yl)-4-((6-(trifluoromethyl)pyridin-3-yl)oxy)picolinamide] gave an IC50 (RIPK1) of 392 nM and an IC50 (U937 cells) of 5.29 µM.
Molecule `CN1C(=O)[C@@H](NC(=O)c2cc(O)ccn2)COc2ccc(C#CC(C)(C)O)cc21` [I-86, (S)-4-hydroxy-N-(7-(3-hydroxy-3-methylbut-1-yn-1-yl)-5-methyl-4-oxo-2,3,4,5-tetrahydrobenzo[b][1,4]oxazepin-3-yl)picolinamide] has an IC50 (U937 cells) of 59.6 µM.
For `CN1C(=O)[C@@H](NC(=O)c2cc(O)ccn2)COc2ccc(C#CC3(O)COC3)cc21` [I-89, (S)-4-hydroxy-N-(7-((3-hydroxyoxetan-3-yl)ethynyl)-5-methyl-4-oxo-2,3,4,5-tetrahydrobenzo[b][1,4]oxazepin-3-yl)picolinamide], the IC50 (U937 cells) was 28.2 µM.
With `CN1C(=O)[C@@H](NC(=O)n2cc(Oc3cccc(F)n3)cn2)COc2ccc(Br)cc21` [I-110, (S)—N-(7-Bromo-5-methyl-4-oxo-2,3,4,5-tetrahydrobenzo[b][1,4]oxazepin-3-yl)-4-((6-fluoropyridin-2-yl)oxy)-1H-pyrazole-1-carboxamide] the IC50 (RIPK1) was 6470 nM and the IC50 (U937 cells) was 9.07 µM.
`CN1C(=O)[C@@H](NC(=O)n2cc(Oc3cccc(F)n3)cn2)COc2ccc(C#CC(C)(C)O)cc21` [I-112, (S)-4-((6-Fluoropyridin-2-yl)oxy)-N-(7-(3-hydroxy-3-methylbut-1-yn-1-yl)-5-methyl-4-oxo-2,3,4,5-tetrahydrobenzo[b][1,4]oxazepin-3-yl)-1H-pyrazole-1-carboxamide] gave an IC50 (RIPK1) of 80.4 nM and an IC50 (U937 cells) of 1.85 µM.
For `CN1C(=O)[C@@H](NC(=O)c2cc(Oc3ccccn3)ccn2)COc2ccc(C#CC(C)(C)O)cc21` [I-128, (S)—N-(7-(3-hydroxy-3-methylbut-1-yn-1-yl)-5-methyl-4-oxo-2,3,4,5-tetrahydrobenzo[b][1,4]oxazepin-3-yl)-4-(pyridin-2-yloxy)picolinamide], the IC50 (RIPK1) was 2150 nM and the IC50 (U937 cells) was 199 µM.
